{"source": "patent US11198731B2", "about": "(Exelixis, Inc., priority 2017, dated 2021)", "origin": "cited, not measured here", "key": {"[1]": {"system": "NSCLC without EGFR genetic alterations", "settings": "cited from earlier work"}, "[2]": {"system": "platinum-pretreated NSCLC", "settings": "cited from earlier work; for OS hazard ratio: vs docetaxel"}, "[3]": {"system": "advanced RCC after prior VEGFR-TKI", "settings": "cited from earlier work"}, "[4]": {"system": "advanced CRPC with bone metastases", "settings": "cited from earlier work"}, "[5]": {"system": "previously-untreated advanced RCC of intermediate- or poor-risk", "settings": "cited from earlier work"}, "cisplatin-ineligible UC": {"system": "cisplatin-ineligible UC", "settings": "cited from earlier work"}, "[6]": {"system": "advanced RCC of clear cell or non-clear cell histology", "settings": "cited from earlier work"}, "advanced NSCLC": {"system": "advanced NSCLC", "settings": "cited from earlier work"}, "[7]": {"system": "locally advanced or metastatic UC", "settings": "cited from earlier work"}, "[8]": {"system": "locally advanced or metastatic UC", "settings": "cited from earlier work", "remark": "listed apart in the source"}, "[9]": {"settings": "PD-L1 positive population (2 1% PD-L1 expression)"}, "[10]": {"settings": "subjects with ≥5% PD-L1 expression"}}, "note": "Where two headings read alike, the source gives them in different places.", "data": [{"molecule": "C#Cc1cccc(Nc2ncnc3cc(OCCOC)c(OCCOC)cc23)c1", "note": "[erlotinib, reference compound]", "values": [{"measurement": "Progression as best response", "setting": "[1]; % of subjects", "value": 66, "unit": "%"}, {"measurement": "Estimated median OS", "setting": "[1]; in vivo", "value": 5.1, "unit": "months"}, {"measurement": "ORR", "setting": "[1]; in vivo", "value": 3, "unit": "%"}, {"measurement": "PFS", "setting": "[1]; second or third line treatment", "value": 1.8, "unit": "months"}]}, {"molecule": "CC(=O)O[C@@]12CO[C@@H]1C[C@H](O)[C@@]1(C)C(=O)[C@H](O)C3=C(C)[C@@H](OC(=O)[C@H](O)[C@@H](NC(=O)OC(C)(C)C)c4ccccc4)C[C@@](O)([C@@H](OC(=O)c4ccccc4)[C@H]21)C3(C)C", "note": "[docetaxel]", "values": [{"measurement": "Median OS", "setting": "[2]; ITT population", "value": 9.6, "unit": "months"}, {"measurement": "ORR", "setting": "[2]; ITT population", "value": 13, "unit": "%"}, {"measurement": "Median OS", "setting": "[2]; [9]", "value": 10.3, "unit": "months"}, {"measurement": "Treatment-related Grade 3 or 4 AEs", "setting": "[2]", "value": 43, "unit": "%"}, {"measurement": "Median DOR", "setting": "[2]; in vivo", "value": 6.2, "unit": "months"}, {"measurement": "Subjects who discontinued treatment due to AE", "setting": "[2]; in vivo", "value": 19, "unit": "%"}]}, {"molecule": "CO[C@H]1C[C@@H]2CC[C@@H](C)[C@@](O)(O2)C(=O)C(=O)N2CCCC[C@H]2C(=O)O[C@H]([C@H](C)C[C@@H]2CC[C@@H](OCCO)[C@H](OC)C2)CC(=O)[C@H](C)/C=C(\\C)[C@@H](O)[C@@H](OC)C(=O)[C@H](C)C[C@H](C)/C=C/C=C/C=C/1C", "note": "[everolimus]", "values": [{"measurement": "ORR per IRC", "setting": "[3]; ITT population", "value": 3, "unit": "%"}, {"measurement": "Median duration of PFS (Kaplan-Meier)", "setting": "[3]; Primary Endpoint Intent-to-Treat population", "value": 3.8, "unit": "months"}, {"measurement": "Median duration of OS (Kaplan-Meier)", "setting": "[3]; in vivo", "value": 16.5, "unit": "months"}, {"measurement": "Treatment discontinuations due to AEs", "setting": "[3]; incidence in each arm", "value": 10, "unit": "%"}]}, {"molecule": "C[C@]12C=CC(=O)C=C1CC[C@@H]1[C@@H]2C(=O)C[C@@]2(C)[C@H]1CC[C@]2(O)C(=O)CO", "note": "[prednisone, reference compound]", "values": [{"measurement": "Proportion of subjects with a bone scan response (BSR) per IRC", "setting": "[4]; at Week 12", "value": 3, "unit": "%"}, {"measurement": "Median PFS per investigator", "setting": "[4]; exploratory endpoint", "value": 2.8, "unit": "months"}, {"measurement": "Median duration of BSR", "setting": "[4]; in vivo", "value": 1.8, "unit": "months"}, {"measurement": "Median duration of OS (Kaplan-Meier)", "setting": "[4]; in vivo", "value": 9.8, "unit": "months"}]}, {"molecule": "CCN(CC)CCNC(=O)c1c(C)[nH]c(/C=C2\\C(=O)Nc3ccc(F)cc32)c1C", "note": "[sunitinib, reference compound]", "values": [{"measurement": "Discontinued study treatment due to an AE", "setting": "[5]; 16 subjects in each arm", "value": 21, "unit": "%"}, {"measurement": "Adverse events of ≥Grade 3 regardless of causality", "setting": "[5]; % of subjects", "value": 65, "unit": "%"}, {"measurement": "≥Grade 3 AE: PPE", "setting": "[5]; in vivo", "value": 4, "unit": "%"}, {"measurement": "≥Grade 3 AE: diarrhea", "setting": "[5]; in vivo", "value": 11, "unit": "%"}, {"measurement": "≥Grade 3 AE: fatigue", "setting": "[5]; in vivo", "value": 17, "unit": "%"}, {"measurement": "≥Grade 3 AE: hematological events", "setting": "[5]; in vivo", "value": 21, "unit": "%"}, {"measurement": "≥Grade 3 AE: hypertension", "setting": "[5]; in vivo", "value": 21, "unit": "%"}]}, {"molecule": "atezolizumab: humanized immunoglobulin (Ig) G1 monoclonal antibody that targets programmed death receptor 1 ligand (PD-L1)", "values": [{"measurement": "Median OS", "setting": "[2]; ITT population", "value": 13.8, "unit": "months"}, {"measurement": "ORR", "setting": "[2]; ITT population", "value": 14, "unit": "%"}, {"measurement": "OS hazard ratio", "setting": "[2]; ITT population", "value": 0.73}, {"measurement": "Median OS", "setting": "[2]; [9]", "value": 15.7, "unit": "months"}, {"measurement": "OS hazard ratio", "setting": "[2]; PD-L1 positive population", "value": 0.74}, {"measurement": "AE of any grade: asthenia", "setting": "[2]; in vivo", "value": 8, "unit": "%"}, {"measurement": "AE of any grade: decreased appetite", "setting": "[2]; in vivo", "value": 9, "unit": "%"}, {"measurement": "AE of any grade: fatigue", "setting": "[2]; in vivo", "value": 14, "unit": "%"}, {"measurement": "AE of any grade: nausea", "setting": "[2]; in vivo", "value": 9, "unit": "%"}, {"measurement": "Immune-related AE: colitis", "setting": "[2]; in vivo", "value": "two"}, {"measurement": "Immune-related AE: hepatitis", "setting": "[2]; in vivo", "value": "two"}, {"measurement": "Immune-related AE: pneumonitis", "setting": "[2]; in vivo", "value": "four"}, {"measurement": "Median DOR", "setting": "[2]; in vivo", "value": 16.3, "unit": "months"}, {"measurement": "Subjects who discontinued treatment due to AE", "setting": "[2]; in vivo", "value": 8, "unit": "%"}, {"measurement": "Treatment-related Grade 3 or 4 AEs", "setting": "[2]; in vivo", "value": 15, "unit": "%"}, {"measurement": "Median OS", "setting": "cisplatin-ineligible UC; all subjects irrespective of PD-L1 expression level", "value": 15.9, "unit": "months"}, {"measurement": "Overall ORR by IRF", "setting": "cisplatin-ineligible UC; all subjects", "value": 23, "unit": "%"}, {"measurement": "ORR by IRF", "setting": "cisplatin-ineligible UC; subjects with <5% PD-L1", "value": 21, "unit": "%"}, {"measurement": "ORR by IRF", "setting": "cisplatin-ineligible UC; [10]", "value": 28, "unit": "%"}, {"measurement": "Median OS", "setting": "[6]; clear cell RCC", "value": 28.9, "unit": "months"}, {"measurement": "Overall median PFS", "setting": "[6]; clear cell RCC", "value": 5.6, "unit": "months"}, {"measurement": "Grade 4 or 5 treatment-related AEs", "setting": "[6]; in vivo", "value": "no Grade 4 or 5 treatment-related AEs"}, {"measurement": "Treatment-related Grade 3 events", "setting": "[6]; in vivo", "value": 17, "unit": "%"}, {"measurement": "Median OS", "setting": "advanced NSCLC; PD-L1 high group", "value": 26.9, "unit": "months"}, {"measurement": "Median PFS", "setting": "advanced NSCLC; PD-L1 high group", "value": 5.4, "unit": "months"}, {"measurement": "Median duration of response", "setting": "advanced NSCLC; PD-L1 high group", "value": "~10", "unit": "months"}, {"measurement": "AE leading to discontinuation: Grade 3 or 4 pneumonitis", "setting": "advanced NSCLC; in vivo", "value": 1, "unit": "%"}, {"measurement": "AE leading to discontinuation: any grade pneumonia", "setting": "advanced NSCLC; in vivo", "value": 1, "unit": "%"}, {"measurement": "Adverse events leading to treatment discontinuation", "setting": "advanced NSCLC; in vivo", "value": 7, "unit": "%"}, {"measurement": "Treatment-related AEs of Grade 3 or 4", "setting": "advanced NSCLC; in vivo", "value": 9, "unit": "%"}, {"measurement": "Treatment-related Grade 5 event", "setting": "advanced NSCLC; in vivo", "value": "no treatment-related Grade 5 event"}, {"measurement": "OS", "setting": "advanced NSCLC; unselected untreated NSCLC subjects", "value": 23.5, "unit": "months"}, {"measurement": "Duration of response (DOR)", "setting": "[7]; overall population", "value": 21.7, "unit": "months"}, {"measurement": "Overall ORR", "setting": "[7]; overall population", "value": 13, "unit": "%"}, {"measurement": "OS hazard ratio", "setting": "[7]; overall population, vs chemotherapy", "value": 0.85}, {"measurement": "ORR", "setting": "[7]; [10]", "value": 23.0, "unit": "%"}, {"measurement": "Adverse events leading to treatment discontinuation", "setting": "[8]; in vivo", "value": 3.2, "unit": "%"}, {"measurement": "Treatment-emergent anti-therapeutic antibodies detected", "setting": "[8]; in vivo", "value": 41.5, "unit": "%"}, {"measurement": "irAE: aspartate aminotransferase (AST) increased", "setting": "[8]; in vivo", "value": 2, "unit": "%"}, {"measurement": "irAE: pneumonitis", "setting": "[8]; in vivo", "value": 2, "unit": "%"}, {"measurement": "Median OS", "setting": "[8]; overall population", "value": 7.9, "unit": "months"}, {"measurement": "Median PFS", "setting": "[8]; overall population", "value": 2.1, "unit": "months"}, {"measurement": "Overall ORR by IRF", "setting": "[8]; overall population", "value": 14.8, "unit": "%"}, {"measurement": "ORR by IRF", "setting": "[8]; subjects with <5% PD-L1 expression", "value": 9.5, "unit": "%"}, {"measurement": "ORR by IRF", "setting": "[8]; subjects with ? 5% PD-L1 expression", "value": 26.0, "unit": "%"}, {"measurement": "Median OS", "setting": "[8]; [10]", "value": 11.9, "unit": "months"}]}]}
